Consider 23 compounds from patent US9708321B2, “Spiro-quinazolinone derivatives and their use as positive allosteric modulators of mGluR4” (Merck Patent GmbH, priority 2013, dated 2017).

Where two headings read alike, the source gives them in different places.

This test concerns the target T1, hmGluR4 (Homo sapiens, UniProt Q14833).
T1 construct: host or cells: HEK293T
Kind of test: HEK-293 mGluR4 cells cAMP assay with EC20 L-Glutamate (HTRF). Format: cell-based. As to the method:
II. Biological Assays HEK-293 mGluR4 Cells cAMP Assay with EC20 L-Glutamate
Using mGluR4 suspension cell format, 10 μM Forskolin (final conc.) used to induce the production of cAMP.
Test the positive allosteric activity of the compounds of the invention at EC20 (2.3 μM for mGluR4 and 4.3 μM for mGluR6) L-Glutamate,
cAMP dymanic2 kit is intended for the direct quantitative determination of cAMP and its principle is based on HTRF technology.
• Cells: HEK293T mGluR4 cells from Multispan, cat# C1191a lot# C1191a-040910 • Culture Media: DMEM+GlutaMAX1+10% dialyzed FBS, 100 mM Sodium Pyruvate, 1 ug/ml puromycin. • Glutamine Starvation Media: DMEM without GlutaMax for plating the cells (glutamine starvation overnight). DMEM high Glucose, without phenol red, glutamine, or sodium pyruvate+10% dialyzed FBS, 100 mM Sodium Pyruvate, 1 ug/ml puromycin, 10 mM Hepes. • Hanks' balanced Salt Solution, HBSS from Invitrogen • Greiner 384 well white low volume high base plate (784075) • cAMP dynamic2 from Cisbio Bioassays • Glutamate: L-Glutamaic acid, monosodium salt, Monohydrate, 98%, from Sigma-Aldrich • Cell Preparation: split cells at 80%-90% confluence. The following day, rinse the cells with DMEM without GlutaMax and change to Glutamine Starvation Media. Incubate overnight. Assay: • Prepare compound plate: Perform compound serial dilution (uses Matrix 4341 plate), using the Bravo liquid handling platform protocol (compound serial dilution) which adds DMSO to columns 1-24 (except cols. 3 and 13). Serial dilute compounds located in columns 3 and 13 at a 1:3 ratio; 10 points (10 ul of 3 mM compound into 20 ul DMSO). Use the Bravo liquid handling platform to transfer 1 ul from the serial dilution plate into Matrix 4314 plate to create stamp plates. Prepare Compound Dilution Buffer: • Dilute 20 mM Forskolin (in DMSO) stock solution in HBSS buffer to make a 20 uM solution (forskolin buffer; 2× solution). To the forskolin buffer, add glutamate to a concentration of 8 uM (compound dilution buffer; 2× EC20 glutamate and forskolin). • Using a multidrop, add 50 ul/well of compound dilution buffer to columns 1-22 of the 2 ul compound stamp plate. Columns 23 and 24 receive forskolin buffer containing 400 uM glutamate (EC100 glutamate; 2× solution). Columns 1 and 2 receive compound dilution buffer containing EC20 glutamate, which is the basal control. • Add a glutamate dose response to row P of compound plate. Prepare the dose response by serial diluting glutamate at a 1:3 ratio in forskolin buffer starting at 2 mM glutamate (2×). Dilute the glutamate 9 times and transfer to compound plate. Prepare Cell Plates: • Harvest cells: Rinse cells with pre-warmed HBSS-10 mM HEPES (without Ca Mg) and dissociate the cells from the flask with versene. Centrifuge the cells, remove the supernatant and suspend in pre-warmed HBSS+10 mM Hepes. Count the cells and centrifuge. Remove the supernatant and suspend the cells in HBSS+Hepes (with Ca Mg) at a density of 400,000 cells/ml. Perform Assay: • Dispense 5 ul from the diluted compound plate into Greiner low volume cell plate using the Bravo liquid handling platform. Using a Multidrop with the small tubing cassette, dispense 5 ul of cells (2000 cells/well) onto the compounds contained in the low volume plates. Incubate the cells at 37° C., 5% CO2 for 30 minutes in the incubator. Assay for cAMP: • Prepare cAMP-d2 and anti-cAMP-Crytate according to the instructions for the two step assay (see Cisbio manual) and add 10 ul of the mixed reagent to each well of the assay plate using the Multidrop. Incubate at room temperature for 60 minutes and read on the Envision plate reader using the mGluR low volume cAMP HTRF 384 well protocol.
(Cyclic AMP is a second messenger, typically raised through Gs and lowered through Gi signalling.)

[1] abbreviates: positive allosteric activity at EC20 L-Glutamate, 10 μM Forskolin, HEK293T mGluR4 cells, cAMP HTRF, read-out: hrmGluR4/HEK293T-hmGluR4 (EC50).

T1 sequence (Q14833 33-912): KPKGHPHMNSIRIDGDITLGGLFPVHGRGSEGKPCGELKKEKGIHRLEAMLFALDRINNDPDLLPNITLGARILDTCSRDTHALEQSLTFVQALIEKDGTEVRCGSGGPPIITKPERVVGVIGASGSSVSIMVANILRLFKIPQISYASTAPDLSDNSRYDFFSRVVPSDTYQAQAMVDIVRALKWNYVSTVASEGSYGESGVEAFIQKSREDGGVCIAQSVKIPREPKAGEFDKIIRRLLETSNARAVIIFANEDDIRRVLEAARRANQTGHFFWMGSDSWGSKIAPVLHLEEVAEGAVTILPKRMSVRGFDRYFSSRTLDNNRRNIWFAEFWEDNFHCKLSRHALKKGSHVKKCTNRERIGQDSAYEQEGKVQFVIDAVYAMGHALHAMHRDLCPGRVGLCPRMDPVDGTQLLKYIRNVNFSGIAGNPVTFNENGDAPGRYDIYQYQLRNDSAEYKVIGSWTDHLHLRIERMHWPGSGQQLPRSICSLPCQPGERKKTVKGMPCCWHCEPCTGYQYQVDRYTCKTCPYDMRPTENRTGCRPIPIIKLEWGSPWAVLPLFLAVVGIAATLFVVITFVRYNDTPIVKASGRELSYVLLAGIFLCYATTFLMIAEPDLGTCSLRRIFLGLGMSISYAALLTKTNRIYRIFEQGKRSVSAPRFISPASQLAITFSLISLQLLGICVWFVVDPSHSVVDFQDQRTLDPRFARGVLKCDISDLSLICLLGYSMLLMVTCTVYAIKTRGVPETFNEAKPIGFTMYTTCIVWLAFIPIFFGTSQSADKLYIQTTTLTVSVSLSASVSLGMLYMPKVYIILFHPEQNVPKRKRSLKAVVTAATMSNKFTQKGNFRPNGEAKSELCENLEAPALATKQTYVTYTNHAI

Consider `COc1ccc(N2C(=O)c3ccc(N4CCCCC4)cc3NC23CCN(Cc2ccc(F)c(F)c2)CC3)cc1` [Compound 83, 1-(3,4-Difluorobenzyl)-3′-(4-methoxyphenyl)-7′-(piperidin-1-yl)-1′H-spiro[piperidine-4,2′-quinazolin]-4′(3′H)-one], for which the EC50 under setting [1] was 1000 to 10000 nM.
`COc1ccc(N2C(=O)c3ccc(Br)cc3OC23CCN(Cc2ccc(F)c(F)c2)CC3)cc1` [Compound 108, 7-Bromo-1′-(3,4-difluorobenzyl)-3-(4-methoxyphenyl)spiro[benzo[e][1,3]oxazine-2,4′-piperidin]-4(3H)-one]: under setting [1], the EC50 lay in the range of 1000 to 10000 nM.
The same measure, in the same setting: with `COCCOc1ccc(N2C(=O)c3ccc(F)cc3NC23CN(Cc2ccccc2Cl)C3)cc1` [Compound 124, 1-(2-Chlorobenzyl)-7′-fluoro-3′-(4-(2-methoxyethoxyl)phenyl)-1′H-spiro[azetidine-3,2′-quinazolin]-4′(3′H)-one] the figure was 1000 to 10000 nM.
`COc1ccc(N2C(=O)c3ccc(Br)cc3NC23CCN(Cc2ccc(F)c(F)c2)CC3)cc1F` [Compound 24, 7′-Bromo-1-(3,4-difluorobenzyl)-3′-(3-fluoro-4-methoxyphenyl)-1′H-spiro[piperidine-4,2′-quinazolin]-4′(3′H)-one] gave an EC50 below 1000 nM.
Turning to `O=C1c2ccc(F)cc2CC2(CCN(Cc3ccc(F)c(F)c3)CC2)N1c1ccc(OC(F)(F)F)cc1` [Compound 127, 1′-(3,4-difluorobenzyl)-6-fluoro-2-(4-(trifluoromethoxy)phenyl)-2,4-dihydro-1H-spiro[isoquinoline-3,4′-piperidin]-1-one], under setting [1], the EC50 fell in the range of 1000 to 10000 nM.
The same measure, in the same setting: with `COCCOC(=O)c1ccc2c(c1)NC1(CCN(Cc3ccc(F)c(F)c3)CC1)N(c1ccc(OC(F)(F)F)cc1)C2=O` [Compound 99, 2-Methoxyethyl 1-(3,4-difluorobenzyl)-4′-oxo-3′-(4-(trifluoromethoxy)phenyl)-3′,4′-dihydro-1′H-spiro[piperidine-4,2′-quinazoline]-7′-carboxylate] the figure was 1000 to 10000 nM; with `COc1ccc(N2C(=O)c3ccc(OC)cc3NC23CCN(Cc2cccc(C#N)c2)CC3)cc1` [Compound 100, 3-((7′-Methoxy-3′-(4-methoxyphenyl)-4′-oxo-3′,4′-dihydro-1′H-spiro[piperidine-4,2′-quinazolin]-1-yl)methyl)benzonitrile], 1000 to 10000 nM.
`COc1ccc(N2C(=O)c3ccccc3CC23CCN(Cc2ccc(F)c(F)c2)CC3)cc1` [Compound 126, 1′-(3,4-difluorobenzyl)-2-(4-methoxyphenyl)-2,4-dihydro-1H-spiro[isoquinoline-3,4′-piperidin]-1-one]: the EC50 lay within 1000 to 10000 nM.
As to `COc1ccc(N2C(=O)c3ccccc3NC23CCC(Nc2ccccc2)CC3)cc1` (centres unmarked) [Compound 44, 3′-(4-Methoxyphenyl)-4-(phenylamino)-1′H-spiro[cyclohexane-1,2′-quinazolin]-4′(3′H)-one], under setting [1], the EC50 was below 1000 nM.
The same measure, in the same setting: with `CCOC(=O)c1ccc2c(c1)NC1(CN(C(C)c3ccc(F)cc3)C1)N(c1ccc(OC(F)(F)F)cc1)C2=O` (centres unmarked) [Compound 87, Ethyl 1-(1-(4-fluorophenyl)ethyl)-4′-oxo-3′-(4-(trifluoromethoxy)phenyl)-3′,4′-dihydro-1′H-spiro[azetidine-3,2′-quinazoline]-7′-carboxylate] the figure was 1000 to 10000 nM.
With `CCC(c1ccc(F)c(F)c1)N1CCC2(CC1)Nc1cc(Br)ccc1C(=O)N2c1ccc(OC(F)(F)F)cc1` (centres unmarked) [Compound 22, 7′-Bromo-1-(1-(3,4-difluorophenyl)propyl)-3′-(4-(trifluoromethoxy)phenyl)-1′H-spiro[piperidine-4,2′-quinazolin]-4′(3′H)-one], the EC50 under setting [1] was below 1000 nM.
Consider `COc1ccc(N2C(=O)c3ccccc3NC23CN(Cc2ccccc2C)C3)cc1` [Compound 94, 3′-(4-Methoxyphenyl)-1-(2-methylbenzyl)-1′H-spiro[azetidine-3,2′-quinazolin]-4′(3′H)-one], for which the EC50 under setting [1] was in the range of 1000 to 10000 nM.
`O=C1c2ccc(Br)cc2NC2(CCN(Cc3ccccc3)CC2)N1c1ccc(OC(F)(F)F)cc1` [Compound 28, 1-Benzyl-7′-bromo-3′-(4-(trifluoromethoxy)phenyl)-1′H-spiro[piperidine-4,2′-quinazolin]-4′(3′H)-one]: under setting [1], the EC50 is below 1000 nM.
As for `O=C1c2ccc(Br)cc2NC2(CCN(Cc3cnc(Br)s3)CC2)N1c1ccc(OC(F)(F)F)cc1` [Compound 110, 7′-Bromo-1-((2-bromothiazol-5-yl)methyl)-3′-(4-(trifluoromethoxy)phenyl)-1′H-spiro[piperidine-4,2′-quinazolin]-4′(3′H)-one], the EC50 under setting [1] lay within 1000 to 10000 nM.
In the case of `CSc1ccc(N2C(=O)c3ccc(Br)cc3NC23CCN(Cc2ccc(F)c(F)c2)CC3)cc1` [Compound 5, 7′-Bromo-1-(3,4-difluorobenzyl)-3′-(4-(methylthio)phenyl)-1′H-spiro[piperidine-4,2′-quinazolin]-4′(3′H)-one], the EC50 under setting [1] was below 1000 nM.
Consider `CC(c1ccc(F)c(F)c1)N1CCC2(CC1)Nc1cc(Br)ccc1C(=O)N2c1ccc(OC(F)(F)F)cc1` (centres unmarked) [Compound 8, 7′-Bromo-1-(1-(3,4-difluorophenyl)ethyl)-3′-(4-(trifluoromethoxy)phenyl)-1′H-spiro[piperidine-4,2′-quinazolin]-4′(3′H)-one], for which, under setting [1], the EC50 is below 1000 nM.
In the case of `COC(=O)c1ccc2c(c1)NC1(CCN(Cc3ccccc3)CC1)N(c1ccc(OC)cc1)C2=O` [Compound 15, Methyl 1-benzyl-3′-(4-methoxyphenyl)-4′-oxo-3′,4′-dihydro-1′H-spiro[piperidine-4,2′-quinazoline]-7′-carboxylate], the EC50 under setting [1] was below 1000 nM.
`CC(c1ccc(F)cc1)N1CC2(C1)Nc1cc(F)ccc1C(=O)N2c1ccc(OC(F)(F)F)cc1` (centres unmarked) [Compound 82, 7′-Fluoro-1-(1-(4-fluorophenyl)ethyl)-3′-(4-(trifluoromethoxy)phenyl)-1′H-spiro[azetidine-3,2′-quinazolin]-4′(3′H)-one]: the EC50 under setting [1] was in the range of 1000 to 10000 nM.
In the case of `COc1ccc(N2C(=O)c3ccc(-c4ccncc4)cc3NC23CCN(Cc2ccc(F)c(F)c2)CC3)cc1` [Compound 20, 1-(3,4-Difluorobenzyl)-3′-(4-methoxyphenyl)-7′-(pyridin-4-yl)-1′H-spiro[piperidine-4,2′-quinazolin]-4′(3′H)-one], under setting [1], the EC50 is below 1000 nM.
As to `COc1ccc(N2C(=O)c3ccccc3NC23CN(Cc2ccccc2)C3)cc1` [Compound 92, 1-Benzyl-3′-(4-methoxyphenyl)-1′H-spiro[azetidine-3,2′-quinazolin]-4′(3′H)-one], the EC50 under setting [1] is 1000 to 10000 nM.
Take `N#Cc1ccc2c(c1)NC1(CCN(Cc3ccc(F)c(F)c3)CC1)N(c1ccc(OC(F)(F)F)cc1)C2=O` [Compound 79, 1-(3,4-Difluorobenzyl)-4′-oxo-3′-(4-(trifluoromethoxy)phenyl)-3′,4′-dihydro-1′H-spiro[piperidine-4,2′-quinazoline]-7′-carbonitrile]: under setting [1], the EC50 fell in the range of 1000 to 10000 nM.
The same measure, in the same setting: with `CCOC(=O)c1ccc2c(c1)NC1(CCN(Cc3ccc(F)c(F)c3)CC1)N(c1ccc(OC)cc1)C2=O` [Compound 1, Ethyl 1-(3,4-difluorobenzyl)-3′-(4-methoxyphenyl)-4′-oxo-3′,4′-dihydro-1′H-spiro[piperidine-4,2′-quinazoline]-7′-carboxylate] the figure was below 1000 nM; with `COc1ccc(N2C(=O)c3ccccc3NC23CCN(Cc2cc(F)cc(F)c2)CC3)cc1` [Compound 80, 1-(3,5-Difluorobenzyl)-3′-(4-methoxyphenyl)-1′H-spiro[piperidine-4,2′-quinazolin]-4′(3′H)-one], 1000 to 10000 nM.
